Assay results from patent US12139487B2, “Compounds and uses thereof” (Foghorn Therapeutics Inc., priority 2022, dated 2024).

Experiments:
BRM = target: T1, BRM (Homo sapiens, UniProt P51531); assay: ATPase catalytic activity assay (ADP-Glo), BRM; assay type: biochemical; conditions: Table 10; for Ratio (BRG1 IC50 (μM) divided by BRM IC50 (μM)): ATPase assay, selectivity BRG1/BRM; for IC50: ATPase catalytic activity assay (ADP-Glo)
T1 construct: made in house; host or cells: High Five insect cells
T1 sequence (P51531 whole entry): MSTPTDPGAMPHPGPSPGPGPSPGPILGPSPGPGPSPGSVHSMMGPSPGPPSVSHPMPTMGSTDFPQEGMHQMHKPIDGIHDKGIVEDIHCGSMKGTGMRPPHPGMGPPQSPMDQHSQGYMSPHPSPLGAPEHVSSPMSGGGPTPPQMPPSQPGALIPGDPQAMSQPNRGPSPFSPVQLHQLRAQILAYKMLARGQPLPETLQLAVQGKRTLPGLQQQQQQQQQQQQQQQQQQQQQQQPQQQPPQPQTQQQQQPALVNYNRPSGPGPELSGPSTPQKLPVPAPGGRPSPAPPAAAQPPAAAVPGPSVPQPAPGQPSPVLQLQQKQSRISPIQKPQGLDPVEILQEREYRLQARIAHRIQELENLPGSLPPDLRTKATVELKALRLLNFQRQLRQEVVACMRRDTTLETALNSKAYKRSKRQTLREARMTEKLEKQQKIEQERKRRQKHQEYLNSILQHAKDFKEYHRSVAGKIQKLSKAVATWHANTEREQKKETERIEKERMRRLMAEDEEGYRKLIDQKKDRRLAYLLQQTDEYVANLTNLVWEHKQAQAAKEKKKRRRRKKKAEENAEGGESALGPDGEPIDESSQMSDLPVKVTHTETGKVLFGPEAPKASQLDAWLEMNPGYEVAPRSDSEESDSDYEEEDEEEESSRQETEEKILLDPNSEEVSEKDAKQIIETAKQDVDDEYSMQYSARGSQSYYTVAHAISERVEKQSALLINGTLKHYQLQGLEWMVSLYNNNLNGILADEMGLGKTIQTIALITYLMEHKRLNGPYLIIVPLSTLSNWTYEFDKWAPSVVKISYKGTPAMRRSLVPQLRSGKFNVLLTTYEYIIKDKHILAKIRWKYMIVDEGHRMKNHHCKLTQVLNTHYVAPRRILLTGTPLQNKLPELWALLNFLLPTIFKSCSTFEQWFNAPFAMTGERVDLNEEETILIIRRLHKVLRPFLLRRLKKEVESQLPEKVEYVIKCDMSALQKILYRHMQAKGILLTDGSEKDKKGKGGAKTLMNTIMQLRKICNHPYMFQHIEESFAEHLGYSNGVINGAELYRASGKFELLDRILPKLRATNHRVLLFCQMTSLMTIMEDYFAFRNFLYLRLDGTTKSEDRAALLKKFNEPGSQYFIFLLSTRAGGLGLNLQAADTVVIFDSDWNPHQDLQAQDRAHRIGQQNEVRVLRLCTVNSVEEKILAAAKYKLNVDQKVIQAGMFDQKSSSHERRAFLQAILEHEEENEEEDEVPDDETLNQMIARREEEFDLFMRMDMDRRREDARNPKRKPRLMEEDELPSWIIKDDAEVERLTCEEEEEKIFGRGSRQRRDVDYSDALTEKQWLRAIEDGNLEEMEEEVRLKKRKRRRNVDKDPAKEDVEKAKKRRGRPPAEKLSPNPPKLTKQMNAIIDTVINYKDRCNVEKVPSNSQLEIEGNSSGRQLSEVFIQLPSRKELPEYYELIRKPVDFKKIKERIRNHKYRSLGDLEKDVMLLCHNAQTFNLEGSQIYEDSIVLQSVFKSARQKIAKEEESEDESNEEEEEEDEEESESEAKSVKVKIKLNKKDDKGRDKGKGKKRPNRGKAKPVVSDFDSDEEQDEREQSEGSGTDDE
Description: (§1) The ATPase catalytic activity of BRM or BRG-1 was measured by an in vitro biochemical assay using ADP-Glo™ (Promega, V9102). The ADP-Glo™ kinase assay is performed in two steps once the reaction is complete. The first step is to deplete any unconsumed ATP in the reaction. The second step is to convert the reaction product ADP to ATP, which will be utilized by the luciferase to generate luminesce and be detected by a luminescence reader, such as Envision.
The assay reaction mixture […] contains 30 nM of BRM or BRG-1, 20 nM salmon sperm DNA (from Invitrogen, UltraPure™ Salmon Sperm DNA Solution, cat #15632011), and 400 μM of ATP in the ATPase assay buffer, which comprises of 20 mM Tris, pH 8, 20 mM MgCl2, 50 mM NaCl, 0.1% Tween-20, and 1 mM fresh DTT (Pierce™ DTT (Dithiothreitol), cat #20290). The reaction is initiated by the addition of the 2.5 μL ATPase solution to 2.5 μL ATP/DNA solution on low volume white Proxiplate-384 plus plate (PerkinElmer, cat #6008280) and incubates at room temperature for 1 hour. Then, following addition of 5 μL of ADP-Glo™ Reagent provided in the kit, the reaction incubates at room temperature for 40 minutes. Then, 10 μL of Kinase Detection Reagent provided in the kit is added to convert ADP to ATP, and the reaction incubates at room temperature for 60 minutes. Finally, luminescence measurement is collected with a plate-reading luminometer, such as Envision.

BRG-1 = target: T2, BRG-1 (Homo sapiens, UniProt P51532); assay: ATPase catalytic activity assay (ADP-Glo), BRG-1; assay type: biochemical; conditions: Table 10, read-out: BRG1 IC50
T2 construct: made in house; host or cells: High Five insect cells
T2 sequence (P51532 whole entry): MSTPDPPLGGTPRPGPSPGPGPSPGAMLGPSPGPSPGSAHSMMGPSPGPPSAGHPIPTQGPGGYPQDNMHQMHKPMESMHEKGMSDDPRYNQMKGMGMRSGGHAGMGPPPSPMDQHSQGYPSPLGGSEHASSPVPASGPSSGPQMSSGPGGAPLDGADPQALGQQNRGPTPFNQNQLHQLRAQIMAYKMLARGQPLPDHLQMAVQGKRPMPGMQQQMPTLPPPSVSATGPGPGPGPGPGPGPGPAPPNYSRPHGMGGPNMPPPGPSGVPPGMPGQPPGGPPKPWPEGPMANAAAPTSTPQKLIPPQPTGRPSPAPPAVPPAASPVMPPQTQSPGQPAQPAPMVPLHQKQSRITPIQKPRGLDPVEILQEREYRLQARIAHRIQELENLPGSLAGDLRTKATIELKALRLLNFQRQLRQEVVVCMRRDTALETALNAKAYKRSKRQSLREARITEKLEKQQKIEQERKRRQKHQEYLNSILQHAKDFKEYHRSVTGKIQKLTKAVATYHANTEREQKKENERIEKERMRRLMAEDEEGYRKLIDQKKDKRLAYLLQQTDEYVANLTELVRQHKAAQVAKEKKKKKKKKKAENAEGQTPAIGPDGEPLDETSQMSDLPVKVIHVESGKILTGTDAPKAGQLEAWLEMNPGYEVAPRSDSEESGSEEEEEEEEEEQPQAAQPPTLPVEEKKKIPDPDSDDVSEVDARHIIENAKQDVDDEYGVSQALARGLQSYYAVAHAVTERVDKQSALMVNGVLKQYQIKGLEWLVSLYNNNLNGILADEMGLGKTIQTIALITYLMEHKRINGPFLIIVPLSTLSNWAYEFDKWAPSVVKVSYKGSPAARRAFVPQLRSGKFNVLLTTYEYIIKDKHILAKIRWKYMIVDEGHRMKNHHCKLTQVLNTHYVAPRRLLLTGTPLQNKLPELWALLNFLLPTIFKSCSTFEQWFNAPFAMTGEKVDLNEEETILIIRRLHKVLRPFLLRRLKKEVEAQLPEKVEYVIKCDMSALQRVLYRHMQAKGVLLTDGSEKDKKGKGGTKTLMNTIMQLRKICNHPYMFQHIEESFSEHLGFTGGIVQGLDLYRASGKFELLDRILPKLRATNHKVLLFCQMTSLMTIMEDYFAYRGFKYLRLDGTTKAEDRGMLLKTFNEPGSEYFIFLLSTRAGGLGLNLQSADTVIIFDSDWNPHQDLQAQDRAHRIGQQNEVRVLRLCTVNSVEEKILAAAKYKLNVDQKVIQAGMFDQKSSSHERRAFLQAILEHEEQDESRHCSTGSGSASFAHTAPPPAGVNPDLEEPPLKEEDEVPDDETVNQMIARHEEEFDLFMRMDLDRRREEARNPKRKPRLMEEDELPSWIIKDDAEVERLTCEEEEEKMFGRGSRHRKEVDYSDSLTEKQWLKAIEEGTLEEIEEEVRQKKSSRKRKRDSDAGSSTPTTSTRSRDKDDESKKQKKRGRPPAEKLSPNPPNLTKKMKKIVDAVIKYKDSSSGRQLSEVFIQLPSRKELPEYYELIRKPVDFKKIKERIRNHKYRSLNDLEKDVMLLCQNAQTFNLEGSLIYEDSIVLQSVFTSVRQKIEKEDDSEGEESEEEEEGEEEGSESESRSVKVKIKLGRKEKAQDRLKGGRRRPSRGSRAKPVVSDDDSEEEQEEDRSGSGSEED
Description: as §1
Then, following addition of 5 μL of ADP-Glo™ Reagent provided in the kit, the reaction incubates at room temperature for 40 minutes. Then, 10 μL of Kinase Detection Reagent provided in the kit is added to convert ADP to ATP, and the reaction incubates at room temperature for 60 minutes. Finally, luminescence measurement is collected with a plate-reading luminometer, such as Envision.

Ratio (BRG1 IC50 (μM) divided by BRM IC50 (μM)) (BRM)	IC50 (BRM)	IC50 (BRG-1)	Compound
7.78	227 nM	1760 nM	C[C@@H]1CN(c2cccc(-c3ccc4cnc(CNC(=O)c5ccc6c(c5)S(=O)(=O)[C@@H](F)CN(C)C6)cc4n3)n2)C[C@H](C)O1 (single isomer, unassigned) [Compound 317]
7.29	2.9 nM	21.4 nM	C[C@@H]1CN(c2cccc(-c3ccc4cnc(CNC(=O)c5ccc6c(c5)S(=O)(=O)[C@@H](F)CN(C)C6)cc4n3)n2)C[C@H](C)O1 [Compound 1, (R)—N-((2-(6-((2S,6R)-2,6-dimethylmorpholino)pyridin-2-yl)-1,6-naphthyridin-7-yl)methyl)-2-fluoro-4-methyl-2,3,4,5-tetrahydrobenzo[f][1,4]thiazepine-8-carboxamide 1,1-dioxide]
18.80	0.6 nM	10.5 nM	COCCn1c(C)cc2c(-c3ccc4cnc(CNC(=O)c5cc(F)c6c(c5)S(=O)(=O)[C@@H](F)CCO6)cc4n3)cccc21 [Compound 2]
–	0.8 nM	25.2 nM	[2H]C1([2H])OC([2H])([2H])[C@H](F)S(=O)(=O)c2cc(C(=O)NCc3cc4nc(N5CCOc6cc(C7CC7)cnc65)ccc4cn3)cc(F)c21 [Compound 3]
12.99	1.1 nM	16.9 nM	CCOc1ccnc2c1CCCN2c1ccc2cnc(CNC(=O)c3cc(F)c4c(c3)S(=O)(=O)[C@@H](F)CCO4)cc2n1 [Compound 4]
9.64	1.1 nM	10.9 nM	C[C@@H]1CN(c2cccc(-c3ccc4cnc(CNC(=O)c5cc(F)c6c(c5)S(=O)(=O)[C@H](F)CCCO6)cc4n3)n2)C[C@H](C)O1 [Compound 5]
14.89	1.3 nM	22.3 nM	O=C(NCc1cc2nc(N3CCOc4cc(C5CC5)cnc43)ccc2cn1)c1cc(F)c2c(c1)S(=O)(=O)[C@@H](F)COC2 [Compound 8]
23.22	1.3 nM	30.2 nM	O=C(NCc1cc2cc(N3CCOc4cc(C5CC5)cnc43)ccc2cn1)c1cc(F)c2c(c1)S(=O)(=O)[C@@H](F)COC2 [Compound 9]
11.90	1.3 nM	15.7 nM	COCc1cc2c(c(F)c1Cl)N(c1ccc3cnc(CNC(=O)c4cc(F)c5c(c4)S(=O)(=O)[C@@H](F)CCO5)cc3n1)CCO2 [Compound 10]
9.50	1.4 nM	14.2 nM	CCOc1ccnc2c1OCCN2c1ccc2cnc(CNC(=O)c3cc(F)c4c(c3)S(=O)(=O)[C@@H](F)COC4)cc2n1 [Compound 11]
11.63	1.4 nM	16.2 nM	CCO[C@@H]1CCN(c2cccc(-c3ccc4cnc(CNC(=O)c5cc(F)c6c(c5)S(=O)(=O)[C@@H](F)COC6)cc4n3)n2)C1 [Compound 12]
14.77	1.5 nM	24.3 nM	C[C@H]1C[C@@H]1c1ccc2c(n1)N(c1ccc3cnc(CNC(=O)c4cc(F)c5c(c4)S(=O)(=O)[C@@H](F)COC5)cc3n1)CCO2 [Compound 13]
11.06	1.5 nM	16.6 nM	O=C(NCc1cc2nc(N3CCCc4c3ncc(F)c4OC3CC3)ccc2cn1)c1cc(F)c2c(c1)S(=O)(=O)[C@@H](F)CCO2 [Compound 15]
10.27	1.5 nM	17.8 nM	C[C@@H]1CN(c2nccc(-c3ccc4cnc(CNC(=O)c5cc(F)c6c(c5)S(=O)(=O)[C@@H](F)CCO6)cc4c3)n2)C[C@H](C)O1 [Compound 16]
–	–	35.3 nM	CN(C)c1cnc2c(c1)OCCN2c1ccc2cnc(CNC(=O)c3cc(F)c4c(c3)S(=O)(=O)[C@@H](F)CCO4)cc2n1 [Compound 106]
–	–	99 nM	C[C@@H]1CN(c2cccc(/C=C/c3ccnc(CNC(=O)c4cc(Cl)c5c(c4)S(=O)(=O)[C@@H](F)COC5)c3)n2)C[C@H](C)O1 [Compound 107]
–	–	88.9 nM	O=C(NCc1cc2nc(N3CCOc4ccc(OC(F)F)nc43)ccc2cn1)c1cc(F)c2c(c1)S(=O)(=O)[C@@H](F)CCO2 [Compound 126]
–	–	72.5 nM	COc1nc(C(F)(F)F)ccc1-c1ccc2cnc(CNC(=O)c3cc(F)c4c(c3)S(=O)(=O)[C@@H](F)COC4)cc2n1 [Compound 127]
–	–	123 nM	O=C(NCc1cc2nc(-c3cccc([C@H]4CC4(F)F)n3)ccc2cn1)c1cc(F)c2c(c1)S(=O)(=O)[C@@H](F)COC2 [Compound 128]
–	–	239 nM	O=C(NCc1cc2nc(N3CCOc4ccc(C(F)F)nc43)ccc2cn1)c1cc(Cl)c2c(c1)S(=O)(=O)[C@@H](F)COC2 [Compound 208]
–	–	103 nM	O=C(NCc1cc2nc(N3CCOc4ccc([C@@H]5C[C@@H]5F)nc43)ccc2cn1)c1cc(F)c2c(c1)S(=O)(=O)[C@@H](F)COC2 [Compound 209]

Ratio (BRG1 IC50 (μM) divided by BRM IC50 (μM)) (BRM)	IC50 (BRM)	IC50 (BRG-1)	Compound
–	–	61.6 nM	CO[C@H]1C[C@@H]1N(C)c1cccc(-c2ccc3cnc(CNC(=O)c4cc(F)c5c(c4)S(=O)(=O)[C@@H](F)COC5)cc3n2)n1 [Compound 211]
–	–	136 nM	O=C(NCc1cc2nc(N3CCOc4c(N5CC6(CC6)C5)ccnc43)ccc2cn1)c1cc(F)c2c(c1)S(=O)(=O)[C@@H](F)COC2 [Compound 212]
–	–	90.3 nM	O=C(NCc1cc2nc(N3CCOc4cc(OCC(F)F)cnc43)ccc2cn1)c1cc(F)c2c(c1)S(=O)(=O)[C@@H](F)COC2 [Compound 213]
–	–	72 nM	C[C@@H]1CCN1c1cc2c(cn1)N(c1ccc3cnc(CNC(=O)c4cc(F)c5c(c4)S(=O)(=O)[C@@H](F)COC5)cc3n1)CCO2 [Compound 214]
–	–	90.6 nM	C[C@@H]1C[C@H](C)N1c1cnc2c(c1)OCCN2c1ccc2cnc(CNC(=O)c3cc(F)c4c(c3)S(=O)(=O)[C@@H](F)CCO4)cc2n1 [Compound 218]
–	–	167 nM	COCC1CN(c2ccc3c(c2)N(c2ccc4cnc(CNC(=O)c5cc(F)c6c(c5)S(=O)(=O)[C@@H](F)CCO6)cc4n2)CCO3)C1 [Compound 219]
–	–	148 nM	O=C(NCc1cc2nc(-c3cncc(N4CCCC4)n3)ccc2cn1)c1cc(F)c2c(c1)S(=O)(=O)[C@@H](F)CCO2 [Compound 220]
–	–	140 nM	O=C(NCc1cc2cc(-c3cccc(C(F)F)n3)ccc2cn1)c1cc(F)c2c(c1)S(=O)(=O)[C@@H](F)COC2 [Compound 232]
–	–	76.2 nM	C[C@H]1CCN1c1cnc2c(c1)OCCN2c1ccc2cnc(CNC(=O)c3cc(F)c4c(c3)S(=O)(=O)[C@@H](F)CCO4)cc2n1 [Compound 233]
–	–	83 nM	COc1nc(C(F)F)ccc1-c1ccc2cnc(CNC(=O)c3cc(C(F)F)c4c(c3)S(=O)(=O)[C@@H](F)COC4)cc2n1 [Compound 234]
–	–	82.4 nM	O=C(NCc1cc2nc(N3CCOc4cc(C5CC5)cnc43)ccc2cn1)c1cc(F)c2c(c1)S(=O)(=O)[C@@H](F)CCO2 [Compound 241]
–	–	246 nM	COc1nc([C@@H](C)F)ccc1-c1ccc2cnc(CNC(=O)c3cc(Cl)c4c(c3)S(=O)(=O)[C@@H](F)COC4)cc2n1 [Compound 242]
–	–	111 nM	C[C@@H]1CCCN1c1cnc2c(c1)OCCN2c1ccc2cnc(CNC(=O)c3cc(F)c4c(c3)S(=O)(=O)[C@@H](F)CCO4)cc2n1 [Compound 243]
–	–	108 nM	[2H]C([2H])([2H])Oc1ccc(-c2ccc3cnc(CNC(=O)c4cc(F)c5c(c4)S(=O)(=O)[C@@H](F)CCO5)cc3n2)nc1C1CC1 [Compound 257]
–	–	102 nM	O=C(NCc1cc2nc(N3CCOc4cc(N5C[C@@H](F)[C@H](F)C5)cnc43)ccc2cn1)c1cc(Cl)c2c(c1)S(=O)(=O)[C@@H](F)CCO2 [Compound 258, (R)-9-chloro-N-((2-(7-((3R,4R)-3,4-difluoropyrrolidin-1-yl)-2,3-dihydro-4H-pyrido[3,2-b][1,4]oxazin-4-yl)-1,6-naphthyridin-7-yl)methyl)-4-fluoro-3,4-dihydro-2H-benzo[b][1,4]oxathiepine-7-carboxamide 5,5-dioxide]
–	–	177 nM	O=C(NCc1cc2nc(N3CCOc4ccc(N5CCC5)nc43)ccc2cn1)c1cc(F)c2c(c1)S(=O)(=O)[C@@H](F)CCO2 [Compound 264]
–	–	206 nM	O=C(NCc1cc2cc(-c3cccc(C4CC4)n3)ccc2cn1)c1cc(F)c2c(c1)S(=O)(=O)[C@@H](F)CCO2 [Compound 291]
–	–	4130 nM	C#Cc1cc(C(=O)NCc2cc3nc(-c4cccc(N5C[C@@H](C)O[C@@H](C)C5)n4)ccc3cn2)cc2c1OCC[C@H](F)S2(=O)=O [Compound 314]
–	–	1350 nM	COc1cc(C(=O)NCc2cc3nc(-c4ccc(OC(F)F)c(C5CC5)n4)ccc3cn2)cc2c1COC[C@H](F)S2(=O)=O [Compound 329]
–	–	351 nM	CCOc1cccc(-c2ccc3cnc(CNC(=O)c4cc(F)c5c(c4)S(=O)(=O)[C@@H](F)CCO5)cc3n2)n1 [Compound 330]
